Measured values: patent EP0935963A2, “The use of MMP-13 selective inhibitors for the treatment of osteoarthritis and other matrix metalloproteinase-mediated disorders” (Pfizer Products Inc., priority 1997, dated 1999)
pIC50: −log10 of the molar value. Where two headings read alike, the source gives them in different places.

Columns and labels:
MMP-13 [1] = target: T1, MMP-13 (Homo sapiens, UniProt P45452); experiment: Inhibition of MMP-13, fluorescence assay; format: biochemical
Experimental: Human recombinant MMP-13 is activated with 2 mM APMA (p-aminophenyl mercuric acetate) for 1.5 hours, at 37°C and is then diluted to […] in assay buffer (50 mM Tris, pH 7.5, 200 mM sodium chloride, 5mM calcium chloride, 20µM zinc chloride, 0.02% Brij 35). Twenty-five microliters of diluted enzyme is added per well of a 96 well microfluor plate. The enzyme is then diluted in a 1:4 ratio in the assay by the addition of inhibitor and substrate to give a final concentration in the assay of 60 ng/ml.
Stock solutions (10 mM) of inhibitors are made up in dimethylsulfoxide and then diluted in assay buffer as per the inhibitor dilution scheme for inhibition of human collagenase-1. Twenty-five microliters of each concentration is added to triplicate wells of a microfluor plate. The final concentrations in the assay are 30 µM, 3 µM, 0.3 µM, and 0.03 µM.
Substrate (Dnp-Pro-Cha-Gly-Cys(Me)-His-Ala-Lys(NMA)-NH2) is prepared as for inhibition of human collagenase (MMP-1) and […] is added to each well to give a final assay concentration of 10 µM. Fluorescence readings (360 nm excitation; 450 nm emission) are taken at time 0 and every 5 minutes for 1 hour.
Positive controls and negative controls are set up in triplicate as outlined in the MMP-1 assay.
IC50's are determined as per inhibition of human collagenase (MMP-1). If IC50's are reported to be less than […], inhibitors are then assayed at final concentrations of 0.3 µM, 0.03 µM, 0.003 µM and 0.0003 µM.

MMP-13 [2] = target: T1, MMP-13; experiment: biochemical
Experimental: (§1) Rat type I collagen is radiolabeled with ^14C acetic anhydride (T.E. Cawston and A.J. Barrett, Anal. Biochem., 99, 340-345 (1979)) and used to prepare 96 well plates containing radiolabeled collagen films (Barbara Johnson-Wint, Anal. Biochem., 104, 175-181 (1980)). When a solution containing collagenase is added to the well, the enzyme cleaves the insoluble collagen which unwinds and is thus solubilized. […] Collagenase inhibitors are, therefore, compounds which reduce the radioactive counts released with respect to the controls with no inhibitor present. One specific embodiment of this assay is described in detail below.
(§2) For determining the selectivity of compounds for MMP-13 versus MMP-1 using collagen as a substrate, the following procedure is used. Recombinant human proMMP-13 or proMMP-1 is activated according to the procedures outlined in Experiment 1. The activated MMP-13 or MMP-1 is diluted to 0.6 ug/ml with buffer ( 50 mM Tris pH 7.5, 150 mM NaCI, 10 mM CaCl2, 1 uM ZnCl2, 0.05% Brij-35, 0.02% sodium azide).
(§3) Stock solutions of test compound (10mM) in dimethylsulfoxide are prepared. Dilutions of the test compounds in the Tris buffer, above, are made to 0.2, 2.0, 20, 200, 2000 and 20000 nM.
(§4) 100 µl of appropriate drug dilution and 100 µl of diluted enzyme are pipetted into wells of a 96 well plate containing collagen films labeled with ^14C-collagen. The final enzyme concentration is 0.3 µg/ml while the final drug concentration is 0.1, 1.0, 10, 100, 1000 nM. Each drug concentration and control is analyzed in triplicate. Triplicate controls are also run for the conditions in which no enzyme is present and for enzyme in the absence of any compound.
(§5) The plates are incubated at 37°C for a time period such that around 30 - 50% of the available collagen is solubilized - determined by counting additional control wells at various time points. In most cases around 9 hours of incubation are required. When the assay has progressed sufficiently, the supernatant from each well is removed and counted in a scintillation counter. The background counts (determined by the counts in the wells with no enzyme) are subtracted from each sample and the % release calculated in relation to the wells with enzyme only and no inhibitor. The triplicate values for each point are averaged and the data graphed as percent release versus drug concentration. IC50's are determined from the point at which 50% inhibition of release of radiolabeled collagen is obtained.

[3] = system: cartilage conditioned medium collagenase activity; experiment: Collagen film assay with cartilage conditioned medium as enzyme source; format: biochemical
Experimental: Rat type I collagen is radiolabeled with ^14C acetic anhydride (T.E. Cawston and A.J. Barrett, Anal. Biochem., 99, 340-345 (1979)) and used to prepare 96 well plates containing radiolabeled collagen films (Barbara Johnson-Wint, Anal. Biochem., 104, 175-181 (1980)). When a solution containing collagenase is added to the well, the enzyme cleaves the insoluble collagen which unwinds and is thus solubilized. Collagenase activity is directly proportional to the amount of collagen solubilized, determined by the proportion of radioactivity released into the supernatant as measured in a standard scintillation counter. Collagenase inhibitors are, therefore, compounds which reduce the radioactive counts released with respect to the controls with no inhibitor present. One specific embodiment of this assay is described in detail below.
as §3, §4, §5
To determine the identity of the active collagenases in cartilage conditioned medium, assays were carried out using collagen as a substrate, cartilage conditioned medium containing collagenase activity and inhibtors of varying selectivity. The cartilage conditioned medium was collected during the time at which collagen degradation was occurring and thus is representative of the collagenases responsible for the collagen breakdown. Assays were carried out as outlined above except that instead of using recombinant MMP-13 or recombinant MMP-1, cartilage conditioned medium was the enzyme source. […]

[4] = system: bovine nasal cartilage explants; experiment: IL-1 Induced Cartilage Collagen Degradation From Bovine Nasal Cartilage (cartilage explant assay); format: cell-based; settings: Bos taurus
From the text: This assay uses bovine nasal cartilage explants which are commonly used to test the efficacy of various compounds to inhibit either IL-1 induced proteoglycan degradation or IL-1 induced collagen degradation. Bovine nasal cartilage is a tissue that is very similar to articular cartilage, i.e. chondrocytes surrounded by a matrix that is primarily type II collagen and aggrecan. The tissue is used because it: (1) is very similar to articular cartilage, (2) is readily available, (3) is relatively homogeneous, and (4) degrades with predictable kinetics after IL-1 stimulation.
Two variations of this assay have been used to assay compounds. Both variations give similar data. The two variations are described below:
Three plugs of bovine nasal cartilage (approximately 2 mm diameter x 1.5 mm long) are placed into each well of a 24 well tissue culture plate. One ml of serumless medium is then added to each well. Compounds are prepared as 10 mM stock solutions in DMSO and then diluted appropriately in serumless medium to final concentrations, e.g., 50, 500 and 5000 nM. Each concentration is assayed in triplicate.
Human recombinant IL-1α (5ng/mL) (IL-1) is added to triplicate control wells and to each well containing drug. Triplicate control wells are also set up in which neither drug nor IL-1 are added. The medium is removed and fresh medium containing IL-1 and the appropriate drug concentrations is added on days 6, 12, 18 and 24 or every 3 - 4 days if necessary. The media removed at each time point is stored at -20°C for later analysis. When the cartilage in the IL-1 alone wells has almost completely resorbed (about day 21), the experiment is terminated. The medium, is removed and stored. Aliquots (100 ul) from each well at each time point are pooled, digested with papain and then analyzed for hydroxyproline content. Background hydroxyproline (average of wells with no IL-1 and no drug) is subtracted from each data point and the average calculated for each triplicate. The data is then expressed as a percent of the IL-1 alone average value and plotted. The IC50 is determined from this plot.
The experimental set-up is the same as outlined above in Variation 1, until day 12. On day 12, the conditioned medium from each well is removed and frozen. Then one ml of phosphate buffered saline (PBS) containing 0.5 µg/ml trypsin is added to each well and incubation continued for a further 48 hours at 37°C. After 48 hours incubation in trypsin, the PBS solution is removed. Aliquots (50 µl) of the PBS/trypsin solution and the previous two time points (days 6 and 12) are pooled. hydrolyzed and hydroxyproline content determined. Background hydroxyproline (average of wells with no IL-1 and no drug) is subtracted from each data point and the average calculated for each triplicate. The data is then expressed as a percent of the IL-1 alone average value and plotted. The IC50 is determined from this plot. In this variation, the time course of the experiment is shortened considerably. The addition of trypsin for 48 hours after 12 days of IL-1 stimulation likely releases any type II collagen that has been damaged by collagenase activity but not yet released from the cartilage matrix. In the absence of IL-1 stimulation, trypsin treatment produces only low background levels of collagen degradation in the cartilage explants.

[5] = target: T2, Human recombinant collagenase-1 (Homo sapiens, UniProt P03956); experiment: Inhibition of Human Collagenase (MMP-1), fluorescence assay; format: biochemical
T2 sequence (P03956 100-469): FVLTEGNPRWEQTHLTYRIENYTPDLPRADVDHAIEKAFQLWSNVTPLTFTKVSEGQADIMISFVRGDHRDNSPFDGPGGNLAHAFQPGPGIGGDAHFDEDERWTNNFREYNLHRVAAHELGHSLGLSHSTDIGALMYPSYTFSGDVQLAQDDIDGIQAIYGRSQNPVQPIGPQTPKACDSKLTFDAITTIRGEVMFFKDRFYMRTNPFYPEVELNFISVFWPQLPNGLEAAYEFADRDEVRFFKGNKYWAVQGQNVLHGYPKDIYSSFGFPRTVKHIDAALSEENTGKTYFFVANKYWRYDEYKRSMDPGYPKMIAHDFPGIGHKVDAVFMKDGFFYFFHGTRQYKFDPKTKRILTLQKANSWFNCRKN
Experimental: Human recombinant collagenase-1 is activated with trypsin.
The final concentration of inhibitor will be a 1:4 dilution after addition of enzyme and substrate.
Final concentration of collagenase in the assay is 60 ng/ml.
Fluorescence versus time is then plotted for both the blank and collagenase containing samples (data from triplicate determinations is averaged). […] The zero time is used as a blank for each compound at each concentration and these values are subtracted from the 120 minute data.

MMP-1 = target: T3, MMP-1 (Homo sapiens, UniProt P03956); experiment: biochemical
T3 sequence (P03956 100-469): T2 sequence (P03956 100-469)
Experimental: as §1, §2, §3, §4, §5

[6] = clinical trial data, Proceedings of ASCO, 15, 490 (1996); cited from earlier work
[7] = Table 2, collagen film substrate
[8] = Table 3 (repeated for comparison)
[9] = 504 h, Variation 1: IL-1 stimulation until about day 21, hydroxyproline content, read-out: Cartilage Explant Assay IC50 Variation 1
[10] = read-out: Average IC50 (variation 1 and 2), average of variation 1 and 2
[11] = Variation 2: 12 days IL-1, then trypsin 48 hours, hydroxyproline content, read-out: Cartilage Explant Assay IC50 Variation 2

Row | SMILES | pIC50 (MMP-13 [1]) | pIC50 (MMP-13 [2]) | inhibition of the cartilage conditioned medium collagenase activity (in words) [3] | pIC50 [3, 7] | pIC50 [3, 8] | pIC50 [4, 9] | pIC50 [4, 10] | pIC50 [4, 11] | pIC50 ([5]; fluorescent peptide substrate, read-out: MMP-1 Fluor. IC50) | pIC50 (MMP-13 [1]; fluorescent peptide substrate, read-out: MMP-13 Fluor. IC50) | pIC50 (MMP-1; Table 2, type I collagen film substrate, read-out: MMP-1 Type I Collagen IC50) | pIC50 (MMP-13 [2]; Table 2, type I collagen film substrate, read-out: MMP-13 Type 1 Collagen IC50) | pIC50 [5] | pIC50 (MMP-1) | connective tissue side effects [6]
1 | CNC(=O)[C@H](Cc1ccc(OC)cc1)NC(=O)C(CC(=O)NO)CC(C)C (stereo partly drawn) [Example 1, reference compound] | 8.82 | 8.82 | potent inhibitor | 8.00 | 8.00 | 7.22 | 7.05 | 7.30 |  |  |  |  |  |  | 
2 | O=C(CN(Cc1cccnc1)S(=O)(=O)c1ccc(OCc2ccccc2)cc1)NO [Example 2] |  |  | potent inhibitors | 6.66 | 6.66 | 6.05 | 6.14 | 6.26 | 4.75 | 8.27 | 4.66 | 7.28 |  |  | 
3 | CNC(=O)C(Cc1ccc(OC)cc1)NC(=O)C(CCCCOc1ccccc1)CP(=O)(O)Cc1ccc(Cc2ccccc2)cc1 (stereo not drawn) [Example 3] | 7.15 | 7.40 | potent inhibitors | 6.40 | 6.40 |  |  | 6.08 |  |  |  |  | 4.66 | 4.40 | 
4 | CNC(=O)[C@@H](NC(=O)[C@H](CC(C)C)[C@H](O)C(=O)NO)C(C)(C)C [marimastat] |  |  |  |  |  |  |  |  |  |  |  |  |  |  | significant dose-related connective tissue side effects
